Reference: paper PMC7067379, “Mapping the S1 and S1’ subsites of cysteine proteases with new dipeptidyl nitrile inhibitors as trypanocidal agents” (PLoS Neglected Tropical Diseases, 2020)
Like-named read-outs stand apart in the source and are kept apart here.

Assays:
cathepsin B (CatB) = cathepsin B (CatB) (Homo sapiens, UniProt P07858); experiment: Cathepsin B enzyme inhibition; type: biochemical; conditions: for Ki: SD lower than 15%, read-out: pKi CatB (converted)
[1] = biological target: T1, Human recombinant cathepsin K (Homo sapiens, UniProt P43235); experiment: Cathepsin K assay; type: biochemical; conditions: SD lower than 15%; read-out: pKi CatK (converted)
T1 sequence (P43235 115-329): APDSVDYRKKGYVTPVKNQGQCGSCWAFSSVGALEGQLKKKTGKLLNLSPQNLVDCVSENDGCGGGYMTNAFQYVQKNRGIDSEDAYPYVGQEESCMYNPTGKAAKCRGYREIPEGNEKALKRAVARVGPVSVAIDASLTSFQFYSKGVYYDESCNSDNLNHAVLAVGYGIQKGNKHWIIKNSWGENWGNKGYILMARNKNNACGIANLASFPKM
Protocol: Human recombinant cathepsin K was assayed on a FLUOSTAR Optima plate reader at 25 °C with an excitation wavelength of 360 nm and an emission wavelength of 440 nm on a 96 well plate. The enzyme solution (23 μg/mL in 50 mM sodium acetate pH 5.5, 50 mM NaCl, 0.5 mM EDTA, 5 mM DTT) was diluted 1:100 with assay buffer (100 mM sodium citrate buffer pH 5.0, 100 mM NaCl, 1 mM EDTA, 0.01% CHAPS) containing 5 mM DTT and was then incubated at 37 °C for 30 min for activation. A 1.5 mM stock solution of the substrate Z-Leu-Arg-AMC was prepared in DMSO. […] The assay was performed with a final concentration of cathepsin K of 1.73 ng/mL. Stock solutions of inhibitors were prepared in DMSO. The final DMSO concentration was 2% (4 μL). Into a well containing 194.5 μL assay buffer, 0.8 μL of the fluorogenic substrate, DMSO and inhibitor solution (3.2 μL) were added. Upon addition of cathepsin K (1.5 μL), the measurement was started and followed for 20 min.

cathepsin L (CatL) = cathepsin L (CatL) (Homo sapiens, UniProt P07711); experiment: Cathepsin L enzyme inhibition; type: biochemical; conditions: SD lower than 15%; for Ki: read-out: pKi CatL (converted)
Chain of cathepsin L (CatL) (P07711 114-333): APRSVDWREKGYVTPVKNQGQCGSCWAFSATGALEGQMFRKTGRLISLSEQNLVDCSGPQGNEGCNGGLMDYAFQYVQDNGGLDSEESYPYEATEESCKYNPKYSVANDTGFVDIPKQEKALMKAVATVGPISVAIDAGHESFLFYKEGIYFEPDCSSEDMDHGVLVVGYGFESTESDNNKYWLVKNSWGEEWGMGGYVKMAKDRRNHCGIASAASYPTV

cathepsin S (CatS) = cathepsin S (CatS) (Homo sapiens, UniProt P25774); experiment: Cathepsin S enzyme inhibition; type: biochemical; conditions: SD lower than 15%; read-out: pKi CatS (converted)
Chain of cathepsin S (CatS) (P25774 115-331): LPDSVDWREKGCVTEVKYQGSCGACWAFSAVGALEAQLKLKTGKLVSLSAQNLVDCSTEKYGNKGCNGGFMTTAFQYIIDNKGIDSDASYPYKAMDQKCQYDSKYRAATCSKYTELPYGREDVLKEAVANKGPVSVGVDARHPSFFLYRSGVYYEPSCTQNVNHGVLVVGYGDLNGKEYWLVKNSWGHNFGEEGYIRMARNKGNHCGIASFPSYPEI
Protocol: (§1) Enzyme inhibition studies for Cz and LmCPB were performed as previously described for Cz. The experimental procedures are described in the Supporting Information (see chapter S3). Cathepsins B, L, S were assayed as reported.

recombinant cruzain (Cz) = recombinant cruzain (Cz) (Trypanosoma cruzi, UniProt P25779); experiment: Cruzain enzyme inhibition; type: biochemical; conditions: SD lower than 15%; read-out: pKi Cz (converted)
Chain of recombinant cruzain (Cz) (P25779 123-337): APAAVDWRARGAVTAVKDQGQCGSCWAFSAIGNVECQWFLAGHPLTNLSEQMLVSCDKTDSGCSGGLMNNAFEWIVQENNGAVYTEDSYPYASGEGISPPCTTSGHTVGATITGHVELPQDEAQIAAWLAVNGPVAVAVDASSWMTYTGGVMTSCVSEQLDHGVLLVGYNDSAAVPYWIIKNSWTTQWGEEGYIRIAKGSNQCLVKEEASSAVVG
Protocol: as §1

[2] = biological target: Leishmania mexicana CPB (LmCPB) (Leishmania mexicana, UniProt P36400); experiment: LmCPB enzyme inhibition; type: biochemical; conditions: SD lower than 15%; read-out: pKi LmCPB (converted)
Chain of Leishmania mexicana CPB (LmCPB) (P36400 126-443): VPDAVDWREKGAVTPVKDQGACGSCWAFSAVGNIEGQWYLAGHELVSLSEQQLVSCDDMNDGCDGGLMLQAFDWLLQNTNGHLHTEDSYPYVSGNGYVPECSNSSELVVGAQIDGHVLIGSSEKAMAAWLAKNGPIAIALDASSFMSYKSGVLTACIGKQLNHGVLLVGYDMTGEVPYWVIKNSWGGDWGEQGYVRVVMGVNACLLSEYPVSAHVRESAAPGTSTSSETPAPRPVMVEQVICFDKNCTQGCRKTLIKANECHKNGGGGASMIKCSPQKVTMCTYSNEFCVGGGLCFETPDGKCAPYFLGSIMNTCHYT
Protocol: as §1

[3] = test system: T. cruzi Tulahuen LacZ strain, intracellular amastigote forms; experiment: In vitro trypanocidal activity on intracellular amastigote forms (Tulahuen strain); type: cell-based, Trypanosoma cruzi; conditions: for SI (selective index): from EC50 (T. cruzi) and CC50 (LLCMK2)
Protocol: Cells were evaluated in 96-well plates. Cells from the LLCMK2 lineage were plated at a concentration of 5x10^4 cells mL^-1. Trypomastigote forms of the Tulahuen LacZ strain were added at a concentration of 5×10^5 parasites mL^-1 and placed in the incubator at 37°C with 5% CO2 for 24 h. After the incubation period, the trypomastigote forms present were removed by successive washes with PBS, remaining only as intracellular amastigote forms. Compounds were added at different concentrations (1.95 μM to 250 μM serial dilutions) and incubated for 72 h. At the end of this period, the substrate CPRG (chlorophenol red β-D-galactopyranoside, 400 μM in 0.3% Triton X-100, pH 7.4) was added. […] Benznidazole was used as a positive control in the same concentrations as the substances, and DMSO as a negative control. Compounds were solubilized in DMSO. The selectivity index (SI) was calculated using the formula: […]. All statistical analyses were done with the program GraphPad Prism v.5.

[4] = Mammalian cytotoxicity assay (MTT); type: cell-based; conditions: rhesus monkey, LLCMK2 cells;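 also: Read-out is absorbance at 570 nm of formazan taken up in DMSO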
Protocol: LLCMK2 cells were cultured in 96-well plates at a concentration of 5 x 10^4 cells/ml. After 48 h, the plates were washed twice with PBS and 200 μL RPMI medium was added with serial dilutions of the compounds and benznidazole (1.95 μM to 250 μM) in triplicate. After 72 h at 37 °C, the cytotoxic activity of the compounds was determined by the classical MTT [3- (4,5-dimethylthiazol-2-yl) -2,5-diphenyltetrazolium bromide] method. Briefly, 50 μL MTT dissolved in PBS (2.0 mg mL^-1) was added to each well and the plates were incubated for 4 h at 37 °C. The formed formazan crystals were dissolved with DMSO (50 μL/well) and the absorbance of the samples was measured by spectrophotometer at 570 nm after 30 min.

[5] = Trypanosoma cruzi, TULAHUEN, 72 h, amastigote, Tulahuen strain, 72 h, Table 2, read-out: EC50 trypanocidal activity
[6] = Trypanosoma cruzi, TULAHUEN, T. cruzi amastigote form, S1 Table, read-out: pEC50 (converted)
[7] = LLCMK2, 72 h, MTT, Table 2, read-out: CC50 cytotoxicity
[8] = S1 Table, maximum concentration used 250 µM, read-out: CC50
[9] = Trypanosoma cruzi, TULAHUEN, read-out: EC50 T. cruzi, S1 Table, maximum concentration used 250 µM
[10] = Trypanosoma cruzi, TULAHUEN, read-out: pEC50, T. cruzi amastigote form (converted), S1 Table

SMILES	remaining activity at 10 µM (cathepsin B (CatB); 10 μM, replicates = 2, n.i. = no inhibition observed at 10 μM)	Ki [1]	Ki (cathepsin L (CatL))	Ki (cathepsin S (CatS))	Ki (recombinant cruzain (Cz))	Ki [2]	EC50 [3, 5]	EC50 [3, 6]	SI (selective index) ([3]; Table 2)	CC50 at 72 h [4, 7]	CC50 at 72 h [4, 8]	melting point	EC50 ([3]; Trypanosoma cruzi, TULAHUEN, S1 Table, maximum concentration used 250 µM, read-out: EC50 T. cruzi)	pKi CatL (cathepsin L (CatL))	EC50 [3, 9]	EC50 [3, 10]	Ki (cathepsin B (CatB))	EC50 ([3]; Trypanosoma cruzi, TULAHUEN, amastigote forms of T. cruzi (Tuhaluen strain), Figs 12-14, unit inferred)	EC50 ([3]; Trypanosoma cruzi, TULAHUEN, 72 h, read-out: EC50 trypanocidal activity, amastigote, Tulahuen strain, 72 h, Table 2)	EC50 ([3]; amastigote, Tulahuen strain, 72 h, Table 2, read-out: EC50 trypanocidal activity)
CC(C)CC(C#N)NC(=O)[C@H](Cc1ccccc1)NC(=O)c1cc(C(C)(C)C)nn1C (stereo in doubt) [Compound 53, 3-(tert-Butyl)-N-((S)-1-(((S)-1-cyano-3-methylbutyl)amino)-1-oxo-3-phenylpropan-2-yl)-1-methyl-1H-pyrazole-5-carboxamide]	90%	1000 nM	100 nM	1000 nM	316 nM	398 nM	26000 ± 2600 nM	25100 nM	> 3.8	> 100000 nM	132000 nM	91 to 94 °C	–	–	–	–	–	–	–	–
O=C(Cn1ccnc1[N+](=O)[O-])NCc1ccccc1 [Benznidazole, reference compound]	–	–	–	–	–	–	4400 ± 470 nM	3980 nM	> 23	> 100000 nM	–	–	4300 nM	–	–	–	–	–	–	–
N#CC1(NC(=O)[C@H](Cc2ccccc2)NC(=O)c2ccccc2)CC1 [Compound 6]	–	398 nM	–	79.4 nM	–	251 nM	–	–	–	–	–	–	–	7.4	> 100000 nM	> 100000 nM	–	–	–	–
N#CC1(NC(=O)[C@H](Cc2cccc(Cl)c2)NC(=O)c2ccccc2)CC1 [Compound 7, (S)-N-(3-(3-Chlorophenyl)-1-((1-cyanocyclopropyl)amino)-1-oxopropan-2-yl)benzamide]	–	631 nM	50.1 nM	20 nM	126 nM	631 nM	–	–	–	–	4000 nM	213 to 215 °C	–	–	> 100000 nM	> 100000 nM	3160 nM	–	–	–
Cn1nc(C(C)(C)C)cc1C(=O)N[C@@H](Cc1cccc(Cl)c1)C(=O)NC1(C#N)CC1 [Compound 8, (S)-3-(tert-Butyl)-N-(3-(3-chlorophenyl)-1-((1-cyanocyclopropyl)amino)-1-oxopropan-2-yl)-1-methyl-1H-pyrazole-5-carboxamide]	–	398 nM	2.51 nM	200 nM	39.8 nM	200 nM	–	–	–	–	> 100000 nM	152 to 154 °C	–	–	> 100000 nM	> 100000 nM	3980 nM	> 100000 nM	–	–
Cn1nc(C(C)(C)C)cc1C(=O)N[C@@H](Cc1ccccc1)C(=O)NC1(C#N)CC1 [Compound 9]	–	316 nM	6.31 nM	158 nM	50.1 nM	79.4 nM	–	–	> 1.4	> 100000 nM	–	–	–	–	–	79400 nM	15800 nM	–	71800 nM	72000 ± 5700 nM
